From US20250340565A1, “CD73 INHIBITOR COMPOUNDS” (AdoRx Therapeutics Limited, priority 2022, published 2025)
Structures can show the parent of a compound that is named as a salt.

How the values were obtained:
[1] = biological target: human (h)CD73 (amino acids Trp27-Lys547) (Homo sapiens, UniProt P21589); experiment: CD73 inhibition assay (Malachite Green phosphate detection); format: biochemical; details: 250 pM hCD73, 12.5 μM AMP, 20 min pre-incubation, absorbance 620 nm
How it was run: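 250 pM hCD73 (Trp27-Lys547) preincubated 20 min with compound (1% DMSO) in 25 mM Tris pH 7.5, 5 mM MgCl2, 0.002% Tween20. Reaction with 12.5 μM AMP for 20 min at room temperature; phosphate detected by malachite green at 620 nm. Data normalised to no compound (0%) and 10 μM control compound (100%).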

[2] = biological target: CD73 activity in U138-MG cells (Homo sapiens (Human), UniProt P21589); experiment: U138-MG inhibition assay (inorganic phosphate from AMP, PiColorLock Gold); format: cell-based; details: 100 μM AMP, 30 min pre-incubation, 1 hour at 37° C.
How it was run: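 Washed U138-MG cells in HEPES-buffered saline (pH 7.4) preincubated 30 min at 37 °C with inhibitor, then given 100 μM AMP (final) for 1 h at 37 °C. Released phosphate in supernatant read by PiColorLock Gold; no-AMP wells define 100% inhibition. IC50 taken as inflection of sigmoidal curve.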

CD73 in whole blood = CD73 in whole blood (Homo sapiens (Human), UniProt P21589); experiment: Whole blood AMP Glo assay; format: cell-based; details: whole blood of healthy volunteers, 10 μM AMP, 30 min pre-incubation, 15 min at 37° C., levamisole 1.5 mM
How it was run: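 Heparinised healthy-donor human whole blood, with 1.5 mM levamisole, preincubated with compound 30 min at 37 °C, then 10 μM AMP added for 15 min at 37 °C (0.6% DMSO). Remaining plasma AMP measured by AMP-Glo luminescence against a standard curve; IC50 from curve inflection point.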

Sequence of CD73 activity in U138-MG cells (P21589 27-574): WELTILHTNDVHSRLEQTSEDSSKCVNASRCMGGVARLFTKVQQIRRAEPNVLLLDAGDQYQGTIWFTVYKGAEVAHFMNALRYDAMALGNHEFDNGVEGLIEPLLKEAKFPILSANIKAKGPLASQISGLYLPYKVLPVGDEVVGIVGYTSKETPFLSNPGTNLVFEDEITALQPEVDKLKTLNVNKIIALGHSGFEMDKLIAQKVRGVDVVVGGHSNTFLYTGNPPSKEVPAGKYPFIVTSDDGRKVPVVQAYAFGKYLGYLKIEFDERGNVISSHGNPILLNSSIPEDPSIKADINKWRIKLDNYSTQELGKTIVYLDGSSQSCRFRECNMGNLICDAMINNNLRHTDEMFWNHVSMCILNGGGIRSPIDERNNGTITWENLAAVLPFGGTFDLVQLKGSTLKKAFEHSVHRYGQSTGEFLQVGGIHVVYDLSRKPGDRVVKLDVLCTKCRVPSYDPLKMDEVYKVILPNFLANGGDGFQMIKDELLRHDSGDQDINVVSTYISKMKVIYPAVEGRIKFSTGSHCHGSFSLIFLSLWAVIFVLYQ
Sequence of CD73 in whole blood (P21589 27-574): as above

IC50 [1] [nM] | IC50 [2] [nM] | IC50 (CD73 in whole blood) [nM] | SMILES
49.2 | 3.2 | 1.5 | COC1CN(c2ncnc3nn(-c4c[nH]c(=O)[nH]c4=O)cc23)CC1(F)F (stereo not drawn) [Example 13.11, 5-[4-(3,3-Difluoro-4-methoxy-pyrrolidin-1-yl)pyrazolo[3,4-d]pyrimidin-2-yl]-1H-pyrimidine-2,4-dione]
62.8 | 177 | 549 | O=c1[nH]cc(-c2cc3c(N4CCC(OCCN5CCCCC5)C4)ccnc3s2)c(=O)[nH]1 (stereo not drawn) [Example 14, 5-[4-[3-[2-(1-Piperidyl)ethoxy]pyrrolidin-1-yl]thieno[2,3-b]pyridin-2-yl]-1H-pyrimidine-2,4-dione]
139 | 65.6 | 56.5 | O=c1[nH]cc(-c2nc3c(N4CCC(OCCN5CCCCC5)C4)ncnc3[nH]2)c(=O)[nH]1 (stereo not drawn) [Example 15, 5-[6-[3-[2-(1-Piperidyl)ethoxy]pyrrolidin-1-yl]-9H-purin-8-yl]-1H-pyrimidine-2,4-dione]
297 | 1340 | 1550 | O=c1[nH]cc(-c2cc3nccc(N4CCC(OCCN5CCCCC5)C4)c3s2)c(=O)[nH]1 (stereo not drawn) [Example 16, 5-[7-[3-[2-(1-Piperidyl)ethoxy]pyrrolidin-1-yl]thieno[3,2-b]pyridin-2-yl]-1H-pyrimidine-2,4-dione]
59.4 | 108 | 119 | O=c1[nH]cc(-c2cc3c(N4CC(OCCN5CCCCC5)C(F)(F)C4)ncnn3c2)c(=O)[nH]1 (stereo not drawn) [Example 17, 5-[4-[3,3-Difluoro-4-[2-(1-piperidyl)ethoxy]pyrrolidin-1-yl]pyrrolo[2,1-f][1,2,4]triazin-6-yl]-1H-pyrimidine-2,4-dione formate salt]
62.5 | 91.1 | 118 | O=C1N=CC(c2cc3c(N4CCC(OCCN5CCCCC5)C4)nc(Cl)nn3c2)C(=O)N1 (stereo not drawn) [Example 18, 5-[2-Chloro-4-[3-[2-(1-piperidyl)ethoxy]pyrrolidin-1-yl]pyrrolo[2,1-f][1,2,4]triazin-6-yl]-5H-pyrimidine-2,4-dione]
58.2 | 68.7 | 1240 | O=c1[nH]cc(-c2cc3c(N4CC(F)(F)C5(CCC5)C4)ncnc3o2)c(=O)[nH]1 [Example 19, 5-[4-(8,8-Difluoro-6-azaspiro[3.4]octan-6-yl)furo[2,3-d]pyrimidin-6-yl]-1H-pyrimidine-2,4-dione]
96.2 | 104 | 1990 | O=c1[nH]cc(-c2cc3c(N4CC(F)(F)C5(CCCC5)C4)ncnc3o2)c(=O)[nH]1 [Example 19.1, 5-[4-(4,4-Difluoro-2-azaspiro[4.4]nonan-2-yl)furo[2,3-d]pyrimidin-6-yl]-1H-pyrimidine-2,4-dione]
137 | 28.3 | 652 | O=c1[nH]cc(-c2cc3c(N4CC(F)(F)C5(CC5)C4)ncnc3o2)c(=O)[nH]1 [Example 19.3, 5-[4-(7,7-Difluoro-5-azaspiro[2.4]heptan-5-yl)furo[2,3-d]pyrimidin-6-yl]-1H-pyrimidine-2,4-dione]
100 | 70.8 | 40.2 | O=c1[nH]cc(-c2cc3c(N4CCC(OCCN5CCC(C(F)(F)F)CC5)C4)ncnc3o2)c(=O)[nH]1 (stereo not drawn) [Example 21, 5-[4-[3-[2-[4-(Trifluoromethyl)-1-piperidyl]ethoxy]pyrrolidine-1-yl]furo[2,3-d]pyrimidin-6-yl]-1H-pyrimidine-2,4-dione]
136 | 84.5 | 65.5 | O=C(OC1CN(c2ncnc3oc(-c4c[nH]c(=O)[nH]c4=O)cc23)CC1(F)F)N1CCOCC1 (stereo not drawn) [Example 22, [1-[6-(2,4-Dioxo-1H-pyrimidin-5-yl)furo[2,3-d]pyrimidin-4-yl]-4,4-difluoro-pyrrolidin-3-yl]morpholine-4-carboxylate]
152 | 61.9 | 139 | O=C(OC1CN(c2ncnc3oc(-c4c[nH]c(=O)[nH]c4=O)cc23)CC1(F)F)N1CC2CCC(C1)O2 (stereo not drawn) [Example 22.1, [1-[6-(2,4-Dioxo-1H-pyrimidin-5-yl)furo[2,3-d]pyrimidin-4-yl]-4,4-difluoro-pyrrolidin-3-yl]8-oxa-3-azabicyclo[3.2.1]octane-3-carboxylate]
152 | 10.5 | 1.5 | Cc1nc(N2CC(C)(C)C(F)(F)C2)c2cn(-c3c[nH]c(=O)[nH]c3=O)nc2n1 [Example 23, 5-[4-(3,3-Difluoro-4,4-dimethyl-pyrrolidin-1-yl)-6-methyl-pyrazolo[3,4-d]pyrimidin-2-yl]-1H-pyrimidine-2,4-dione]
35.5 | 11.8 | 1.4 | N#Cc1ccc(OC2CCN(c3ncnc4nn(-c5c[nH]c(=O)[nH]c5=O)cc34)C2)nc1 (stereo not drawn) [Example 24, 6-[1-[2-(2,4-Dioxo-1H-pyrimidin-5-yl)pyrazolo[3,4-d]pyrimidin-4-yl]pyrrolidine-3-yl]oxypyridine-3-carbonitrile]
34.2 | 38.6 | 155 | CC1(C)CN(c2nccn3nc(-c4c[nH]c(=O)[nH]c4=O)cc23)CC1(F)F [Example 25, 5-[4-(3,3-Difluoro-4,4-dimethyl-pyrrolidin-1-yl)pyrazolo[1,5-a]pyrazin-2-yl]-1H-pyrimidine-2,4-dione]
42.3 | 38.3 | 645 | O=c1[nH]cc(-c2cc3c(N4CC(F)(F)C5(CCC5)C4)nccn3n2)c(=O)[nH]1 [Example 25.1, 5-[4-(8,8-Difluoro-6-azaspiro[3.4]octan-6-yl)pyrazolo[1,5-a]pyrazin-2-yl]-1H-pyrimidine-2,4-dione]
16 | 2.8 | 38 | CC1(C)CN(c2ncc(Cl)n3nc(-c4c[nH]c(=O)[nH]c4=O)cc23)CC1(F)F [Example 25.8, 5-[7-chloro-4-(3,3-difluoro-4,4-dimethyl-pyrrolidin-1-yl)pyrazolo[1,5-a]pyrazin-2-yl]-1H-pyrimidine-2,4-dione]
58 | 22 | 18000 | CC1(C)CN(c2ncc(C(F)(F)F)n3nc(-c4c[nH]c(=O)[nH]c4=O)cc23)CC1(F)F [Example 25.9, 5-[4-(3,3-difluoro-4,4-dimethyl-pyrrolidin-1-yl)-7-(trifluoromethyl)pyrazolo[1,5-a]pyrazin-2-yl]-1H-pyrimidine-2,4-dione]
55.6 | 2.9 | 16 | CC1(C)CN(c2ncc(F)c3nn(-c4c[nH]c(=O)[nH]c4=O)cc23)CC1(F)F [Example 26, 5-[4-(3,3-Difluoro-4,4-dimethyl-pyrrolidin-1-yl)-7-fluoro-pyrazolo[4,3-c]pyridin-2-yl]-1H-pyrimidine-2,4-dione]
22.9 | 5 | 37 | O=c1[nH]cc(-n2cc3c(N4CC(F)(F)C5(CCC5)C4)ncc(F)c3n2)c(=O)[nH]1 [Example 26.1, 5-[4-(8,8-difluoro-6-azaspiro[3.4]octan-6-yl)-7-fluoro-pyrazolo[4,3-c]pyridin-2-yl]-1H-pyrimidine-2,4-dione]
68.2 | 17 | 69 | O=c1[nH]cc(-n2cc3c(N4CCC5(COC5)C4)ncc(F)c3n2)c(=O)[nH]1 [Example 26.4, 5-[7-fluoro-4-(2-oxa-7-azaspiro[3.4]octan-7-yl)pyrazolo[4,3-c]pyridin-2-yl]-1H-pyrimidine-2,4-dione]
46 | 14 | 254 | O=c1[nH]cc(-n2cc3c(N4CC(F)(F)C5(CC5)C4)ncc(F)c3n2)c(=O)[nH]1 [Example 26.5, 5-[4-(7,7-difluoro-5-azaspiro[2.4]heptan-5-yl)-7-fluoro-pyrazolo[4,3-c]pyridin-2-yl]-1H-pyrimidine-2,4-dione]
65 | 20 | 16 | CC1(C)CN(c2nccc3nn(-c4c[nH]c(=O)[nH]c4=O)cc23)CC1(F)F [Example 27, 5-[4-(3,3-Difluoro-4,4-dimethyl-pyrrolidin-1-yl)pyrazolo[4,3-c]pyridin-2-yl]-1H-pyrimidine-2,4-dione]
15 | 3.6 | 20 | O=c1[nH]cc(-n2cc3c(N4CC(F)(F)C5(CC5)C4)ncc(Cl)c3n2)c(=O)[nH]1 [Example 28.1, 5-[7-chloro-4-(7,7-difluoro-5-azaspiro[2.4]heptan-5-yl)pyrazolo[4,3-c]pyridin-2-yl]-1H-pyrimidine-2,4-dione]
20 | 1.9 | 26 | O=c1[nH]cc(-n2cc3c(N4CC(F)(F)C5(CCC5)C4)ncc(Cl)c3n2)c(=O)[nH]1 [Example 28.2, 5-[7-chloro-4-(8,8-difluoro-6-azaspiro[3.4]octan-6-yl)pyrazolo[4,3-c]pyridin-2-yl]-1H-pyrimidine-2,4-dione]
52 | 8 | 47 | CC1(C)CN(c2ncc(C#N)c3nn(-c4c[nH]c(=O)[nH]c4=O)cc23)CC1(F)F [Example 29, 4-(3,3-difluoro-4,4-dimethyl-pyrrolidin-1-yl)-2-(2,4-dioxo-1H-pyrimidin-5-yl)pyrazolo[4,3-c]pyridine-7-carbonitrile]
